From patent US20250147039A1, “Compounds for complexation of rare earth elements and/or s-, p-, d- block metals, their coordination compounds, peptide conjugates, method of their preparation and use thereof” (USTAV ORGANICKE CHEMIE A BIOCHEMIE AV CR V.V.I., priority 2021, published 2025)

Columns and labels:
[1] = Formation of 1,5-cz-[M(Lig)] from Lig and M^III ions (metal dependent click-zip) (Charts 4, 5); assay type: physicochemical; conditions: MOPS/NaOH buffer pH 7.0, TD728, TD827 in 50% i-PrOH; for conversion to 1,5-cz-[M(Lig)], Y^III: TD714 sum of two diastereoisomers
[2] = pH dependent formation of 1,5- and 1,4-cz-Lig isomers from Lig (pH dependent click-zip) (Chart 13); assay type: physicochemical
[3] = Alkali metal dependent formation of 1,5-cz-Lig and 1,4-cz-Lig isomers from Lig at pH 10.2 (Chart 14); assay type: physicochemical; conditions: Borate/(M^I)2CO3 buffer pH 10.2
[4] = Formation of 1,5-cz-[Ln(Lig)] from Lig and Ln^III ions (metal dependent click-zip), MOPS/NaOH buffer pH 7.0, analytical HPLC (Charts 1, 2); conditions: MOPS/NaOH buffer pH 7.0
[5] = A: 1 hour at 80° C., 0.1M HClO4 (pH ~1)
[6] = A: 1 hour at 80° C., 1.0M HClO4 (pH ~0)
[7] = A: 1 hour at 80° C., pH 2.2, 50 mM aq. buffer
[8] = A: 1 hour at 80° C., pH 3.0, 50 mM aq. buffer
[9] = A: 1 hour at 80° C., pH 3.8, 50 mM aq. buffer
[10] = A: 1 hour at 80° C., pH 4.6, 50 mM aq. buffer
[11] = A: 1 hour at 80° C., pH 5.4, 50 mM aq. buffer
[12] = A: 1 hour at 80° C., pH 6.2, 50 mM aq. buffer
[13] = A: 1 hour at 80° C., pH 7.0, 50 mM aq. buffer
[14] = A: 1 hour at 80° C., pH 8.6, 50 mM aq. buffer
[15] = A: 1 hour at 80° C., pH 9.4, 50 mM aq. buffer
[16] = A: 1 hour at 80° C., pH 10.2, 50 mM aq. buffer
[17] = B: 1 day at 80° C., 0.1M HClO4 (pH ~1)
[18] = B: 1 day at 80° C., 1.0M HClO4 (pH ~0)
[19] = B: 1 day at 80° C., pH 2.2, 50 mM aq. buffer
[20] = B: 1 day at 80° C., pH 3.0, 50 mM aq. buffer
[21] = B: 1 day at 80° C., pH 3.8, 50 mM aq. buffer
[22] = B: 1 day at 80° C., pH 4.6, 50 mM aq. buffer
[23] = B: 1 day at 80° C., pH 5.4, 50 mM aq. buffer
[24] = B: 1 day at 80° C., pH 6.2, 50 mM aq. buffer
[25] = B: 1 day at 80° C., pH 7.0, 50 mM aq. buffer
[26] = B: 1 day at 80° C., pH 8.6, 50 mM aq. buffer
[27] = B: 1 day at 80° C., pH 9.4, 50 mM aq. buffer
[28] = B: 1 day at 80° C., pH 10.2, 50 mM aq. buffer
[29] = B: 1 day at 80° C., visible analyte free precipitate

C#CCNC(=O)CN1CCN(CC(=O)O)CCN(Cc2cc(-c3ccccc3)cc(CN=[N+]=[N-])n2)CCN(CC(=O)O)CC1 [TD425]
93%: conversion to 1,5-cz-Lig isomer [2, 19]
6%: conversion to 1,5-cz-Lig isomer [2, 23] | conversion to 1,5-cz-Lig isomer [2, 24]
90%: conversion to 1,5-cz-Lig isomer [2, 17]
9%: conversion to 1,5-cz-Lig isomer, Na^I ([3]; B: 1 day at 80° C.)
2%: conversion to 1,4-cz-Lig isomer [2, 28] | conversion to 1,5-cz-Lig isomer, Li^I [3, 29]
8%: conversion to 1,5-cz-Lig isomer [2, 25]
0%: conversion to 1,5-cz-[M(Lig)], Sc^III ([1]; 1 week at 80° C.) | conversion to 1,5-cz-[M(Lig)], Y^III ([1]; 1 week at 80° C.) | conversion to 1,5-cz-[M(Lig)], Sc^III ([1]; 1 hour at 80° C.) | conversion to 1,5-cz-[M(Lig)], Y^III ([1]; 1 hour at 80° C.) | conversion to 1,4-cz-Lig isomer [2, 5] | conversion to 1,4-cz-Lig isomer [2, 6] | conversion to 1,4-cz-Lig isomer [2, 7] | conversion to 1,4-cz-Lig isomer [2, 8] | conversion to 1,4-cz-Lig isomer [2, 9] | conversion to 1,4-cz-Lig isomer [2, 10] | conversion to 1,4-cz-Lig isomer [2, 11] | conversion to 1,4-cz-Lig isomer [2, 12] | conversion to 1,5-cz-Lig isomer [2, 12] | conversion to 1,4-cz-Lig isomer [2, 13] | conversion to 1,5-cz-Lig isomer [2, 13] | conversion to 1,4-cz-Lig isomer [2, 14] | conversion to 1,5-cz-Lig isomer [2, 14] | conversion to 1,4-cz-Lig isomer [2, 15] | conversion to 1,4-cz-Lig isomer [2, 16] | conversion to 1,4-cz-Lig isomer [2, 17] | conversion to 1,4-cz-Lig isomer [2, 18] | conversion to 1,4-cz-Lig isomer [2, 19] | conversion to 1,4-cz-Lig isomer [2, 20] | conversion to 1,4-cz-Lig isomer [2, 21] | conversion to 1,4-cz-Lig isomer [2, 22] | conversion to 1,4-cz-Lig isomer [2, 23] | conversion to 1,4-cz-Lig isomer, Li^I ([3]; A: 1 hour at 80° C.) | conversion to 1,4-cz-Lig isomer, Na^I ([3]; A: 1 hour at 80° C.) | conversion to 1,5-cz-Lig isomer, K^I ([3]; A: 1 hour at 80° C.) | conversion to 1,5-cz-Lig isomer, Li^I ([3]; A: 1 hour at 80° C.) | conversion to 1,4-cz-Lig isomer, Li^I [3, 29] | conversion to 1,5-cz-[Ln(Lig)], Ce^III ([4]; after 1 week at 80° C.) | conversion to 1,5-cz-[Ln(Lig)], Ce^III ([4]; after 1 hour at 80° C.) | conversion to 1,5-cz-[Ln(Lig)], Dy^III ([4]; after 1 week at 80° C.) | conversion to 1,5-cz-[Ln(Lig)], Dy^III ([4]; after 1 hour at 80° C.) | conversion to 1,5-cz-[Ln(Lig)], Er^III ([4]; after 1 week at 80° C.) | conversion to 1,5-cz-[Ln(Lig)], Er^III ([4]; after 1 hour at 80° C.) | conversion to 1,5-cz-[Ln(Lig)], Eu^III ([4]; after 1 week at 80° C.) | conversion to 1,5-cz-[Ln(Lig)], Eu^III ([4]; after 1 hour at 80° C.) | conversion to 1,5-cz-[Ln(Lig)], Gd^III ([4]; after 1 week at 80° C.) | conversion to 1,5-cz-[Ln(Lig)], Gd^III ([4]; after 1 hour at 80° C.) | conversion to 1,5-cz-[Ln(Lig)], Ho^III ([4]; after 1 week at 80° C.) | conversion to 1,5-cz-[Ln(Lig)], Ho^III ([4]; after 1 hour at 80° C.) | conversion to 1,5-cz-[Ln(Lig)], La^III ([4]; after 1 week at 80° C.) | conversion to 1,5-cz-[Ln(Lig)], La^III ([4]; after 1 hour at 80° C.) | conversion to 1,5-cz-[Ln(Lig)], Lu^III ([4]; after 1 week at 80° C.) | conversion to 1,5-cz-[Ln(Lig)], Lu^III ([4]; after 1 hour at 80° C.) | conversion to 1,5-cz-[Ln(Lig)], Nd^III ([4]; after 1 week at 80° C.) | conversion to 1,5-cz-[Ln(Lig)], Nd^III ([4]; after 1 hour at 80° C.) | conversion to 1,5-cz-[Ln(Lig)], Pr^III ([4]; after 1 week at 80° C.) | conversion to 1,5-cz-[Ln(Lig)], Pr^III ([4]; after 1 hour at 80° C.) | conversion to 1,5-cz-[Ln(Lig)], Sm^III ([4]; after 1 week at 80° C.) | conversion to 1,5-cz-[Ln(Lig)], Sm^III ([4]; after 1 hour at 80° C.) | conversion to 1,5-cz-[Ln(Lig)], Tb^III ([4]; after 1 week at 80° C.) | conversion to 1,5-cz-[Ln(Lig)], Tb^III ([4]; after 1 hour at 80° C.) | conversion to 1,5-cz-[Ln(Lig)], Tm^III ([4]; after 1 week at 80° C.) | conversion to 1,5-cz-[Ln(Lig)], Tm^III ([4]; after 1 hour at 80° C.) | conversion to 1,5-cz-[Ln(Lig)], Yb^III ([4]; after 1 week at 80° C.) | conversion to 1,5-cz-[Ln(Lig)], Yb^III ([4]; after 1 hour at 80° C.)
4%: conversion to 1,4-cz-Lig isomer [2, 25] | conversion to 1,4-cz-Lig isomer [2, 27]
88%: conversion to 1,5-cz-Lig isomer [2, 18]
57%: conversion to 1,5-cz-Lig isomer [2, 21]
15%: conversion to 1,5-cz-Lig isomer [2, 22]
13%: conversion to 1,5-cz-Lig isomer [2, 5] | conversion to 1,5-cz-Lig isomer [2, 6] | conversion to 1,5-cz-Lig isomer [2, 7]
1%: conversion to 1,5-cz-Lig isomer [2, 10] | conversion to 1,5-cz-Lig isomer [2, 11] | conversion to 1,5-cz-Lig isomer [2, 15] | conversion to 1,5-cz-Lig isomer [2, 16] | conversion to 1,4-cz-Lig isomer [2, 24] | conversion to 1,4-cz-Lig isomer, Cs^I ([3]; A: 1 hour at 80° C.) | conversion to 1,4-cz-Lig isomer, K^I ([3]; A: 1 hour at 80° C.) | conversion to 1,4-cz-Lig isomer, Rb^I ([3]; A: 1 hour at 80° C.) | conversion to 1,5-cz-Lig isomer, Cs^I ([3]; A: 1 hour at 80° C.) | conversion to 1,5-cz-Lig isomer, Na^I ([3]; A: 1 hour at 80° C.) | conversion to 1,5-cz-Lig isomer, Rb^I ([3]; A: 1 hour at 80° C.) | conversion to 1,4-cz-Lig isomer, Na^I ([3]; B: 1 day at 80° C.)
89%: conversion to 1,5-cz-Lig isomer [2, 20]
12%: conversion to 1,5-cz-Lig isomer [2, 28]
3%: conversion to 1,5-cz-Lig isomer [2, 9]
5%: conversion to 1,4-cz-Lig isomer [2, 26]
10%: conversion to 1,5-cz-Lig isomer [2, 8] | conversion to 1,5-cz-Lig isomer [2, 26] | conversion to 1,4-cz-Lig isomer, Cs^I ([3]; B: 1 day at 80° C.) | conversion to 1,4-cz-Lig isomer, K^I ([3]; B: 1 day at 80° C.) | conversion to 1,4-cz-Lig isomer, Rb^I ([3]; B: 1 day at 80° C.) | conversion to 1,5-cz-Lig isomer, K^I ([3]; B: 1 day at 80° C.) | conversion to 1,5-cz-Lig isomer, Rb^I ([3]; B: 1 day at 80° C.)
11%: conversion to 1,5-cz-Lig isomer [2, 27] | conversion to 1,5-cz-Lig isomer, Cs^I ([3]; B: 1 day at 80° C.)
